What was measured:
MCF7-GFP cells = test: Drug treatment of fluorescently-labeled MCF7-fibroblast co-cultures vs mono-cultures (GFP fluorescence, plate-reader); type: cell-based, human; conditions: 72 hours; for Sensitivity of MCF7-GFP cells in co-culture with fibroblasts relative to mono-cultures: at 500 μM drug, GFP fluorescence, hTERT-BJ1-RFP fibroblast co-culture vs MCF7-GFP mono-culture
From the text: To directly test this hypothesis, a new assay system may be used to monitor the sensitivity of cancer cells to drug treatment, in the presence or absence of fibroblasts. For this purpose, hTERT-BJ1-fibroblasts expressing RFP (red fluorescent protein) and MCF7 cells expressing GFP (green fluorescent protein) were generated. Representative images of these mono-cultures are shown in FIGS. 14A (hTERT-BJ1-RFP) and 14B (MCF7-GFP). The hTERT-BJ1-fibroblasts expressing RFP and MCF7 cells expressing GFP were generated by lentiviral transduction. RFP, red fluorescent protein; GFP, green fluorescent protein.
Validation via drug treatment of fluorescently-labeled MCF7-fibroblast co-cultures: hTERT-BJ1-RFP cells and MCF7-GFP cells were first generated by stable transduction with lenti-viral vectors. Then, these cells were plated into clear flat bottom 96-well black microplates (Corning; CLS3603). Mono-cultures were generated by plating either hTERT-BJ1-RFP (8,000 cells/well) or MCF7-GFP cells (8,000 cells/well). In parallel, co-cultures were generated by co-plating hTERT-BJ1-RFP (6,000 cells/well) with MCF7-GFP (2,000 cells/well). The next day, the plates were treated with either Doxycycline or Azithromycin (or vehicle controls) and were incubated for 72 hours at 37° C. The cell culture plates were then read with a plate-reader at 545/590 nm (for RFP) and at 490/510 nm (for GFP). Background readings were subtracted from the fluorescent signal and data were then normalized to controls.

[1] = tested on: MCF7-fibroblasts co-cultures; conditions: MCF7-fibroblast co-cultures; Tamoxifen, Fulvestrant; cited from earlier work

SMILES | Sensitivity of MCF7-GFP cells in co-culture with fibroblasts relative to mono-cultures (MCF7-GFP cells) [fold] | Effect on resistance of co-cultures to apoptosis induced by hormonal therapies [1] | Concentration at which increased sensitivity of MCF7-GFP cells in co-culture was first observed (MCF7-GFP cells; not observed at 50 μM) [µM]
CC[C@H]1OC(=O)[C@H](C)[C@@H](O[C@H]2C[C@@](C)(OC)[C@@H](O)[C@H](C)O2)[C@H](C)[C@@H](O[C@@H]2O[C@H](C)C[C@H](N(C)C)[C@H]2O)[C@](C)(O)C[C@@H](C)CN(C)[C@H](C)[C@@H](O)[C@]1(C)O [Azithromycin] | ~8 | – | –
CN(C)C(=N)N=C(N)N [Metformin] | – | reversed | –
C[C@H]1c2cccc(O)c2C(=O)C2=C(O)[C@]3(O)C(=O)C(C(N)=O)=C(O)[C@@H](N(C)C)[C@@H]3[C@@H](O)[C@@H]21 [Doxycycline] | ~5 | – | 100

Source: patent US11672810B2, “Therapeutics and methods for predicting and overcoming endocrine resistance in breast cancer” (LUNELLA BIOTECH, INC., priority 2019, dated 2023)
